Laboratory results taken from patent US20260365646A1, “AKT1 MODULATORS” (Alterome Therapeutics, Inc., priority 2022, published 2026).

Biological target: T1, full length AKT E17K (Homo sapiens, UniProt P31749, E17K)
T1 construct: host or cells: HEK-293 (ATCC CRL-1573)
Assay: NanoBRET Target Engagement (TE) Intracellular Kinase Assay
Type: cell-based
Conditions: not given
Text: The NanoBRET™ Target Engagement (TE) Intracellular Kinase Assays are based on the NanoBRET™ System (Promega Corporation), an energy transfer technique designed to measure molecular proximity in living cells. The NanoBRET™ TE Assays measure the apparent affinity of test compounds by competitive displacement of the NanoBRET™ tracer compound, which is a cell permeable molecule engineered to be reversibly bound to a NanoLuc® luciferase-kinase fusion expressed in cells. For compound screening, when a test compound binds to the selected kinase, the BRET signal is attenuated. […] All cells were evaluated for viability prior to transfection and optimization of the transfection was done prior to experimentation. […] Following transfection, cells were washed and resuspended in Opti-MEM. NanoBRET assays were performed in white, 384-well plates (Corning) at a density of 2×10^5 cells/well. All example compounds were prepared as concentrated stock solutions in DMSO (Sigma-Aldrich). Compounds are dissolved in DMSO to make 10 mM stock solution. […] A Labcyte ECHO 550 compound dispenser was used to facilitate compound transfer directly to cells. Cells were equilibrated for 2 hr with energy transfer probes and example compound prior to BRET measurements. […] For target engagement analysis, the energy transfer probes were added to the cells at concentrations optimized for the target in question (AKT E17K). Following compound incubation, NanoBRET NanoGlo Substrate (Promega Cat #Ni57D) and Extracellular Nanoluc Inhibitor (Promega Cat #N235C) was added according to the manufacturer's recommended protocol, and luminescence was measured on Envision Reader (Perkin Elmer) Multimode Luminometer equipped with 450 nm BPfilter (donor) and 600 nm LPfilter (acceptor), using 0.5 s integration time. Milli-BRET units (mBU) are calculated by multiplying the raw BRET values by 1000. Apparent tracer affinity values (EC50) were determined using the sigmoidal dose-response (variable slope). Competitive displacement data were then plotted and data were fit to determine the EC50 value for each example compound.

T1 sequence (P31749 whole entry E17K): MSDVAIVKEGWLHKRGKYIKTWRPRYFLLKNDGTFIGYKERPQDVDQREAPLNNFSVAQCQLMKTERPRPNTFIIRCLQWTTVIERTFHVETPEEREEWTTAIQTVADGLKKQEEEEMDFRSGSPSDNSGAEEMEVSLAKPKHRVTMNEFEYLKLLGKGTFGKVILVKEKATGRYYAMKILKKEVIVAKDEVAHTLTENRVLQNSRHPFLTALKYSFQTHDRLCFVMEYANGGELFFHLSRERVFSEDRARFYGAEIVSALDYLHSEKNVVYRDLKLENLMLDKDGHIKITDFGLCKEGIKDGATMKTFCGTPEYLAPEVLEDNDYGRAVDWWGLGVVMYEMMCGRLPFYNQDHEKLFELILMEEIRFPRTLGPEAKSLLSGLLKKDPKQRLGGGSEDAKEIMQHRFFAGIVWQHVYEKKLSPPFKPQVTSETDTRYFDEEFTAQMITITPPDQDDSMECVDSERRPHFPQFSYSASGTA

Compound	EC50
CNc1c(NC2CCN(Cc3ccc(-n4c(-c5cccnc5N)nc5ccc(-c6ccccc6)nc54)cc3)CC2)c(=O)c1=O [Example 20, 3-((1-(4-(2-(2-Aminopyridin-3-yl)-5-phenyl-3H-imidazo[4,5-b]pyridin-3-yl)benzyl)piperidin-4-yl)amino)-4-(methylamino)cyclobut-3-ene-1,2-dione]	60 to 600 nM
Nc1ncccc1-c1nc2ccc(-c3ccccc3)nc2n1-c1ccc(CN2CCC(Nc3c(S)c(=O)c3=O)CC2)cc1 [Example 44, 3-((1-(4-(2-(2-aminopyridin-3-yl)-5-phenyl-3H-imidazo[4,5-b]pyridin-3-yl)benzyl)piperidin-4-yl)amino)-4-mercaptocyclobut-3-ene-1,2-dione]	60 to 600 nM
Nc1ncccc1-c1nc2ccc(-c3ccccc3)nc2n1-c1ccc(CN2CCC(Nc3c(OC4CCCC4)c(=S)c3=S)CC2)cc1 [Example 16, 3-((1-(4-(2-(2-Aminopyridin-3-yl)-5-phenyl-3H-imidazo[4,5-b]pyridin-3-yl)benzyl)piperidin-4-yl)amino)-4-(cyclopentyloxy)cyclobut-3-ene-1,2-dithione]	60 to 600 nM
COc1c(N2CCN(Cc3ccc(-n4c(-c5cccnc5N)nc5ccc(-c6ccccc6)nc54)cc3)CC23CC3)c(=O)c1=O [Example 37, 3-(7-(4-(2-(2-Aminopyridin-3-yl)-5-phenyl-3H-imidazo[4,5-b]pyridin-3-yl)benzyl)-4,7-diazaspiro[2.5]octan-4-yl)-4-methoxycyclobut-3-ene-1,2-dione]	15 to 60 nM
Nc1ncccc1-c1nc2ccc(-c3ccccc3)nc2n1-c1ccc(CNc2c(O)c(=O)c2=O)cc1 [Example 5, 3-((4-(2-(2-Aminopyridin-3-yl)-5-phenyl-3H-imidazo[4,5-b]pyridin-3-yl)benzyl)amino)-4-hydroxycyclobut-3-ene-1,2-dione]	> 600 nM
COc1c(N2CCN(Cc3ccc(-n4c(-c5cccnc5N)nc5cc(-c6ccccc6)cnc54)cc3)CC2)c(=O)c1=O [Example 9, 3-(4-(4-(2-(2-Aminopyridin-3-yl)-6-phenyl-3H-imidazo[4,5-b]pyridin-3-yl)benzyl)piperazin-1-yl)-4-methoxycyclobut-3-ene-1,2-dione]	60 to 600 nM

Other lines, results leading:

EC50	Compound
60 to 600 nM	COc1c(NC2CCCCN(Cc3ccc(-n4c(-c5cccnc5N)nc5ccc(-c6ccccc6)nc54)cc3)C2)c(=O)c1=O (centres unmarked) [Example 74, 3-((1-(4-(2-(2-aminopyridin-3-yl)-5-phenyl-3H-imidazo[4,5-b]pyridin-3-yl)benzyl)azepan-3-yl)amino)-4-methoxycyclobut-3-ene-1,2-dione]
60 to 600 nM	COc1c(N2CCCC3(CN(Cc4ccc(-n5c(-c6cccnc6N)nc6ccc(-c7ccccc7)nc65)cc4)C3)C2)c(=O)c1=O [Example 65, 3-(2-(4-(2-(2-aminopyridin-3-yl)-5-phenyl-3H-imidazo[4,5-b]pyridin-3-yl)benzyl)-2,6-diazaspiro[3.5]nonan-6-yl)-4-methoxycyclobut-3-ene-1,2-dione]
15 to 60 nM	CCSc1c(N(C2CC2)C2CCN(Cc3ccc(-n4c(-c5cccnc5N)nc5ccc(-c6ccccc6)nc54)cc3)CC2)c(=O)c1=O [Example 96, 3-((1-(4-(2-(2-aminopyridin-3-yl)-5-phenyl-3H-imidazo[4,5-b]pyridin-3-yl)benzyl)piperidin-4-yl)(cyclopropyl)amino)-4-(ethylthio)cyclobut-3-ene-1,2-dione]
60 to 600 nM	COc1c(N2[C@H](C)CN(Cc3ccc(-n4c(-c5cccnc5N)nc5ccc(-c6ccccc6)nc54)cc3)C[C@@H]2C)c(=O)c1=O [Example 68, 3-((2S,6R)-4-(4-(2-(2-aminopyridin-3-yl)-5-phenyl-3H-imidazo[4,5-b]pyridin-3-yl)benzyl)-2,6-dimethylpiperazin-1-yl)-4-methoxycyclobut-3-ene-1,2-dione]
60 to 600 nM	COc1c(N2CCN(Cc3ccc(-n4c(-c5cccnc5N)nc5ccc(-c6ccccc6)nc54)cc3)C[C@@H]2CO)c(=O)c1=O [Example 79, (R)-3-(4-(4-(2-(2-aminopyridin-3-yl)-5-phenyl-3H-imidazo[4,5-b]pyridin-3-yl)benzyl)-2-(hydroxymethyl)piperazin-1-yl)-4-methoxycyclobut-3-ene-1,2-dione]

Same assay, conditions: read-out: NanoBRET AKT1E17K EC50; HEK-293 cells transfected with NanoLuc-AKT E17K; competitive displacement of NanoBRET tracer; 2 hr equilibration; 10-point 3-fold dilution

Compound	EC50
CCSc1c(NC2CCN(Cc3ccc(-n4c(-c5cccnc5N)nc5ccc(-c6ccccc6)nc54)cc3)CC2)c(=O)c1=O [Example 39, 3-((1-(4-(2-(2-Aminopyridin-3-yl)-5-phenyl-3H-imidazo[4,5-b]pyridin-3-yl)benzyl)piperidin-4-yl)amino)-4-(ethylthio)cyclobut-3-ene-1,2-dione]	< 15 nM
COc1c(N[C@H]2CCN(Cc3ccc(-n4c(-c5cccnc5N)nc5ccc(-c6ccccc6)nc54)cc3)C2)c(=O)c1=O [Example 30, (S)-3-((1-(4-(2-(2-Aminopyridin-3-yl)-5-phenyl-3H-imidazo[4,5-b]pyridin-3-yl)benzyl)pyrrolidin-3-yl)amino)-4-methoxycyclobut-3-ene-1,2-dione]	< 15 nM
[2H]C([2H])([2H])Oc1c(NC2CCN(Cc3ccc(-n4c(-c5cccnc5N)nc5ccc(-c6ccccc6)nc54)cc3)CC2)c(=O)c1=O [Example 13, 3-((1-(4-(2-(2-Aminopyridin-3-yl)-5-phenyl-3H-imidazo[4,5-b]pyridin-3-yl)benzyl)piperidin-4-yl)amino)-4-(methoxy-d3)cyclobut-3-ene-1,2-dione]	< 15 nM
CCOc1c(N2CC3(CN(Cc4ccc(-n5c(-c6cccnc6N)nc6ccc(-c7ccccc7)nc65)cc4)C3)C2)c(=O)c1=O [Example 40, 3-(6-(4-(2-(2-Aminopyridin-3-yl)-5-phenyl-3H-imidazo[4,5-b]pyridin-3-yl)benzyl)-2,6-diazaspiro[3.3]heptan-2-yl)-4-ethoxycyclobut-3-ene-1,2-dione]	< 15 nM
COc1c(NC2CC3(CCN(Cc4ccc(-n5c(-c6cccnc6N)nc6ccc(-c7ccccc7)nc65)cc4)CC3)C2)c(=O)c1=O [Example 35, 3-((7-(4-(2-(2-Aminopyridin-3-yl)-5-phenyl-3H-imidazo[4,5-b]pyridin-3-yl)benzyl)-7-azaspiro[3.5]nonan-2-yl)amino)-4-methoxycyclobut-3-ene-1,2-dione]	< 15 nM

Now from value to compound:

EC50	Compound
< 15 nM	COc1c(N(C)C2CCN(C(C)c3ccc(-n4c(-c5cccnc5N)nc5ccc(-c6ccccc6)nc54)cc3)CC2)c(=O)c1=O (centres unmarked) [Example 90, 3-((1-(1-(4-(2-(2-aminopyridin-3-yl)-5-phenyl-3H-imidazo[4,5-b]pyridin-3-yl)phenyl)ethyl)piperidin-4-yl)(methyl)amino)-4-methoxycyclobut-3-ene-1,2-dione]
< 15 nM	COc1c(N2CC[C@@]3(CCN(Cc4ccc(-n5c(-c6cccnc6N)nc6ccc(-c7ccccc7)nc65)cc4)C3)C2)c(=O)c1=O [Example 62, (R)-3-(7-(4-(2-(2-Aminopyridin-3-yl)-5-phenyl-3H-imidazo[4,5-b]pyridin-3-yl)benzyl)-2,7-diazaspiro[4.4]nonan-2-yl)-4-methoxycyclobut-3-ene-1,2-dione]
< 15 nM	COc1c(N2CC[C@]3(CCN(Cc4ccc(-n5c(-c6cccnc6N)nc6ccc(-c7ccccc7)nc65)cc4)C3)C2)c(=O)c1=O [Example 66, (S)-3-(7-(4-(2-(2-aminopyridin-3-yl)-5-phenyl-3H-imidazo[4,5-b]pyridin-3-yl)benzyl)-2,7-diazaspiro[4.4]nonan-2-yl)-4-methoxycyclobut-3-ene-1,2-dione]
< 15 nM	COc1c(N(C2CC2)C2CCN(Cc3ccc(-n4c(-c5cccnc5N)nc5ccc(-c6ccccc6)nc54)cc3)CC2)c(=O)c1=O [Example 94, 3-((1-(4-(2-(2-aminopyridin-3-yl)-5-phenyl-3H-imidazo[4,5-b]pyridin-3-yl)benzyl)piperidin-4-yl)(cyclopropyl)amino)-4-methoxycyclobut-3-ene-1,2-dione]
< 15 nM	CCN(c1c(OC)c(=O)c1=O)C1CCN(Cc2ccc(-n3c(-c4cccnc4N)nc4ccc(-c5ccccc5)nc43)cc2)CC1 [Example 91, 3-((1-(4-(2-(2-aminopyridin-3-yl)-5-phenyl-3H-imidazo[4,5-b]pyridin-3-yl)benzyl)piperidin-4-yl)(ethyl)amino)-4-methoxycyclobut-3-ene-1,2-dione]
< 15 nM	COc1c(N2C[C@H]3C[C@@H]2CN3Cc2ccc(-n3c(-c4cccnc4N)nc4ccc(-c5ccccc5)nc43)cc2)c(=O)c1=O [Example 76, 3-((1R,4R)-5-(4-(2-(2-aminopyridin-3-yl)-5-phenyl-3H-imidazo[4,5-b]pyridin-3-yl)benzyl)-2,5-diazabicyclo[2.2.1]heptan-2-yl)-4-methoxycyclobut-3-ene-1,2-dione]
< 15 nM	CSc1c(NC2CCN(Cc3ccc(-n4c(-c5cccnc5N)nc5ccc(-c6ccccc6)nc54)cc3)CC2)c(=O)c1=O [Example 45, 3-((1-(4-(2-(2-aminopyridin-3-yl)-5-phenyl-3H-imidazo[4,5-b]pyridin-3-yl)benzyl)piperidin-4-yl)amino)-4-(methylthio)cyclobut-3-ene-1,2-dione]
